Assay results taken from ChEMBL document CHEMBL3525908, “Chronic doxorubicin cardiotoxicity modulates cardiac cytochrome P450-mediated arachidonic acid metabolism in rats” (Drug Metab Dispos, 2012).

Legend:
Rattus norvegicus [1] = assay: Cardiotoxicity in Sprague-Dawley rat assessed as increase in p53 gene expression level administered as cumulative dose of 15 mg/kg, ip divided into 6 injections for 2 weeks followed by compound washout period of 14 days by RT-PCR analysis relative to control; assay type: toxicity, organism-based; parameters: dose 15 mg/kg, route intraperitoneal; conditions: in vivo, 336 h
H9c2 [2] = assay: Cytotoxicity against rat H9c2 cells assessed as reduction in ANP mRNA expression at 1 uM after 6 hrs in presence of HET0016; assay type: cell-based; conditions: h9c2, 6 h
H9c2 [3] = assay: Cytotoxicity against rat H9c2 cells assessed as reduction in BNP mRNA expression at 1 uM after 6 hrs; assay type: cell-based; conditions: h9c2, 6 h
CYP1A2 = assay: Toxicity in Sprague-Dawley rat assessed as induction of CYP1A2 gene expression in liver administered as cumulative dose of 15 mg/kg, ip divided into 6 injections for 2 weeks followed by compound washout period of 14 days by RT-PCR analysis relative to control; assay type: organism-based; parameters: dose 15 mg/kg, route intraperitoneal
CYP1A1 = assay: Toxicity in Sprague-Dawley rat assessed as induction of CYP1A1 gene expression in liver administered as cumulative dose of 15 mg/kg, ip divided into 6 injections for 2 weeks followed by compound washout period of 14 days by RT-PCR analysis relative to control; assay type: organism-based; parameters: dose 15 mg/kg, route intraperitoneal
Rattus norvegicus [4] = assay: Toxicity in Sprague-Dawley rat assessed as CYP2C11 gene expression in kidney administered as cumulative dose of 15 mg/kg, ip divided into 6 injections for 2 weeks followed by compound washout period of 14 days by RT-PCR analysis relative to control; assay type: organism-based; parameters: dose 15 mg/kg, route intraperitoneal; conditions: in vivo, 336 h
Rattus norvegicus [5] = assay: Toxicity in Sprague-Dawley rat assessed as sEH gene expression in kidney administered as cumulative dose of 15 mg/kg, ip divided into 6 injections for 2 weeks followed by compound washout period of 14 days by RT-PCR analysis; assay type: organism-based; parameters: dose 15 mg/kg, route intraperitoneal; conditions: in vivo, 336 h
Rattus norvegicus [6] = assay: Toxicity in Sprague-Dawley rat assessed as induction of TNF-alpha gene expression in kidney administered as cumulative dose of 15 mg/kg, ip divided into 6 injections for 2 weeks followed by compound washout period of 14 days by RT-PCR analysis relative to control; assay type: organism-based; parameters: dose 15 mg/kg, route intraperitoneal; conditions: 336 h
Rattus norvegicus [7] = assay: Toxicity in Sprague-Dawley rat assessed as inhibition of CYP2C11 gene expression in liver administered as cumulative dose of 15 mg/kg, ip divided into 6 injections for 2 weeks followed by compound washout period of 14 days by RT-PCR analysis relative to control; assay type: organism-based; parameters: dose 15 mg/kg, route intraperitoneal; conditions: in vivo, 336 h
Rattus norvegicus [8] = assay: Toxicity in Sprague-Dawley rat assessed as induction of TNF-alpha gene expression in liver administered as cumulative dose of 15 mg/kg, ip divided into 6 injections for 2 weeks followed by compound washout period of 14 days by RT-PCR analysis relative to control; assay type: organism-based; parameters: dose 15 mg/kg, route intraperitoneal; conditions: 336 h
Rattus norvegicus [9] = assay: Toxicity in Sprague-Dawley rat assessed as inhibition of CYP2B2 gene expression in kidney administered as cumulative dose of 15 mg/kg, ip divided into 6 injections for 2 weeks followed by compound washout period of 14 days by RT-PCR analysis relative to control; assay type: organism-based; parameters: dose 15 mg/kg, route intraperitoneal; conditions: in vivo, 336 h
Rattus norvegicus [10] = assay: (§1) Induction of epoxygenase-mediated arachidonic acid metabolism in Sprague-Dawley rat heart microsomes assessed as EET/DHET formation administered as cumulative dose of 15 mg/kg, ip divided into 6 injections for 2 weeks followed by compound washout period of 14 days by LC-ESI-MS analysis relative to control; assay type: ADME, organism-based; parameters: dose 15 mg/kg, route intraperitoneal; conditions: 336 h
Rattus norvegicus [11] = assay: Toxicity in Sprague-Dawley rat assessed as CYP4A3 gene expression in liver administered as cumulative dose of 15 mg/kg, ip divided into 6 injections for 2 weeks followed by compound washout period of 14 days by RT-PCR analysis relative to control; assay type: organism-based; parameters: dose 15 mg/kg, route intraperitoneal; conditions: in vivo, 336 h
CYP2J3 = assay: Toxicity in Sprague-Dawley rat assessed as induction of CYP2J3 gene expression in kidney administered as cumulative dose of 15 mg/kg, ip divided into 6 injections for 2 weeks followed by compound washout period of 14 days by RT-PCR analysis relative to control; assay type: organism-based; parameters: dose 15 mg/kg, route intraperitoneal
Rattus norvegicus [12] = assay: as §1, with “CYP450-mediated” for “epoxygenase-mediated”, “14,15-DHET” for “EET/DHET”; assay type: ADME, organism-based; parameters: dose 15 mg/kg, route intraperitoneal; conditions: 336 h
Rattus norvegicus [13] = assay: Toxicity in Sprague-Dawley rat assessed as sEH gene expression in liver administered as cumulative dose of 15 mg/kg, ip divided into 6 injections for 2 weeks followed by compound washout period of 14 days by RT-PCR analysis; assay type: organism-based; parameters: dose 15 mg/kg, route intraperitoneal; conditions: in vivo, 336 h
Rattus norvegicus [14] = assay: Cardiotoxicity in Sprague-Dawley rat assessed as increase in CYP4F4 gene expression level administered as cumulative dose of 15 mg/kg, ip divided into 6 injections for 2 weeks followed by compound washout period of 14 days by RT-PCR analysis relative to control; assay type: toxicity, organism-based; parameters: dose 15 mg/kg, route intraperitoneal; conditions: in vivo, 336 h
Rattus norvegicus [15] = assay: Cardiotoxicity in Sprague-Dawley rat assessed as increase in sEH activity in heart microsomes administered as cumulative dose of 15 mg/kg, ip divided into 6 injections for 2 weeks followed by compound washout period of 14 days by RT-PCR analysis relative to control; assay type: toxicity, organism-based; parameters: dose 15 mg/kg, route intraperitoneal; conditions: 336 h
Rattus norvegicus [16] = assay: as §1, with “20-HETE” for “EET/DHET”; assay type: ADME, organism-based; parameters: dose 15 mg/kg, route intraperitoneal; conditions: 336 h
Rattus norvegicus [17] = assay: Toxicity in Sprague-Dawley rat assessed as CYP2J3 gene expression in liver administered as cumulative dose of 15 mg/kg, ip divided into 6 injections for 2 weeks followed by compound washout period of 14 days by RT-PCR analysis relative to control; assay type: organism-based; parameters: dose 15 mg/kg, route intraperitoneal; conditions: in vivo, 336 h
CYP4F5 = assay: Cardiotoxicity in Sprague-Dawley rat assessed as increase in CYP4F5 gene expression level administered as cumulative dose of 15 mg/kg, ip divided into 6 injections for 2 weeks followed by compound washout period of 14 days by RT-PCR analysis relative to control; assay type: toxicity, organism-based; parameters: dose 15 mg/kg, route intraperitoneal; conditions: heart
CYP450 = assay: as §1, with “CYP450-mediated” for “epoxygenase-mediated”, “11,12-DHET” for “EET/DHET”; assay type: ADME, organism-based; parameters: dose 15 mg/kg, route intraperitoneal; conditions: probe arachidonic acid
Rattus norvegicus [18] = assay: as §1, with “CYP450-mediated” for “epoxygenase-mediated”, “11,12-EET” for “EET/DHET”; assay type: ADME, organism-based; parameters: dose 15 mg/kg, route intraperitoneal; conditions: 336 h
Rattus norvegicus [19] = assay: Toxicity in Sprague-Dawley rat assessed as induction of IL-6 gene expression in liver administered as cumulative dose of 15 mg/kg, ip divided into 6 injections for 2 weeks followed by compound washout period of 14 days by RT-PCR analysis relative to control; assay type: organism-based; parameters: dose 15 mg/kg, route intraperitoneal; conditions: 336 h
Rattus norvegicus [20] = assay: Toxicity in Sprague-Dawley rat assessed as CYP1A2 gene expression in kidney administered as cumulative dose of 15 mg/kg, ip divided into 6 injections for 2 weeks followed by compound washout period of 14 days by RT-PCR analysis relative to control; assay type: organism-based; parameters: dose 15 mg/kg, route intraperitoneal; conditions: in vivo, 336 h
Rattus norvegicus [21] = assay: Toxicity in Sprague-Dawley rat assessed as inhibition of CYP2B1 gene expression in liver administered as cumulative dose of 15 mg/kg, ip divided into 6 injections for 2 weeks followed by compound washout period of 14 days by RT-PCR analysis relative to control; assay type: organism-based; parameters: dose 15 mg/kg, route intraperitoneal; conditions: in vivo, 336 h
Rattus norvegicus [22] = assay: Cardiotoxicity in Sprague-Dawley rat assessed as increase in CYP2C11 gene expression level administered as cumulative dose of 15 mg/kg, ip divided into 6 injections for 2 weeks followed by compound washout period of 14 days by RT-PCR analysis relative to control; assay type: toxicity, organism-based; parameters: dose 15 mg/kg, route intraperitoneal; conditions: in vivo, 336 h
H9c2 [23] = assay: Cytotoxicity against rat H9c2 cells assessed as reduction in ANP mRNA expression at 1 uM after 6 hrs; assay type: cell-based; conditions: h9c2, 6 h

In the case of COc1cccc2c1C(=O)c1c(O)c3c(c(O)c1C2=O)C[C@@](O)(C(=O)CO)C[C@@H]3O[C@H]1C[C@H](N)[C@H](O)[C@H](C)O1 [DOXORUBICIN], the Ratio (Rattus norvegicus [1]) is reported as 1.7, the Activity (H9c2 [2]) is reported as “Toxic” and the Activity (H9c2 [3]) is reported as “Non-toxic”. The fold induction at 336 h (CYP1A2) was 1.9, the fold induction at 336 h (CYP1A1) was 2.8 and the Activity (Rattus norvegicus [4]) was “Non-toxic”. The Activity (Rattus norvegicus [5]) was “Non-toxic”, the fold induction at 15 mg/kg (Rattus norvegicus [6]) was 2.9 and the Ratio (Rattus norvegicus [7]) was 0.7. For the same compound, the fold induction at 15 mg/kg (Rattus norvegicus [8]) was 2.2, the Ratio (Rattus norvegicus [9]) was 0.74 and the Activity (Rattus norvegicus [10]) was “Toxic”. The Activity (Rattus norvegicus [11]) was “Non-toxic”, the fold induction at 336 h (CYP2J3) was 1.6 and the Ratio (Rattus norvegicus [12]) was 1.3. For the same compound, the Activity (Rattus norvegicus [13]) was “Non-toxic”, the Activity (Rattus norvegicus [14]) was “Non-toxic” and the Ratio (Rattus norvegicus [15]) was 1.6. The Activity (Rattus norvegicus [16]) was “Toxic”, the Activity (Rattus norvegicus [17]) was “Non-toxic” and the fold induction at 336 h (CYP4F5) was 2. For the same compound, the fold induction at 336 h (CYP450) was 1.9, the Activity (Rattus norvegicus [18]) was “Active” and the fold induction at 15 mg/kg (Rattus norvegicus [19]) was 4.5. For the same compound, the Activity (Rattus norvegicus [20]) was “Non-toxic”, the Ratio (Rattus norvegicus [21]) was 0.5 and the Activity (Rattus norvegicus [22]) was “Non-toxic”. For the same compound, the Activity (H9c2 [23]) was “Non-toxic”.
